Where two headings read alike, the source gives them in different places. Each block holds one compound with its values, some of them ahead of it.
Tests used:
[1] = Baicalin dissolution amount with solubilizing agent (Example 1); assay type: physicochemical; conditions: without additive; baicalin 100 mg in ultrapure water 10 mL; 80° C. one hour, equilibrated 10° C. 48 hours
Description: Then, after the mixture was equilibrated at 10° C. for 48 hours, the supernatant was collected by centrifugation. The OD254 of the supernatant was measured and the dissolution amount of baicalin was calculated by the following equation 1. baicalin dissolution amount (mg/100 mL)=(OD254 in sample supernatant−OD254 in control supernatant)/baicalin specific absorbance×1000

[2] = Storage stability of baicalin supernatant at 10° C., visual examination (Example 1); assay type: physicochemical; conditions: baicalin supernatant without additive, 95° C. 15 minutes, stored 10° C. one month
Description: Further, the supernatant was placed in a test tube and, after it was pasteurized by heating at 95° C. for 15 minutes, it was stored at 10° C. for one month to observe the formation of a precipitate by visual examination.

[3] = Hesperidin dissolution amount with solubilizing agent (Example 3); assay type: physicochemical; conditions: without additive; hesperidin 100 mg in ultrapure water 10 mL; 80° C. one hour, equilibrated 10° C. 48 hours
Description: Then, after it was equilibrated at 10° C. for 48 hours, the supernatant was collected by centrifugation. The OD254 of the supernatant was measured and a hesperidin dissolution amount was calculated by the following equation 3. hesperidin dissolution amount (mg/100 mL)=(OD254 in sample supernatant−OD254 in control supernatant)/hesperidin specific absorbance×1000

[4] = Storage stability of hesperidin supernatant at 10° C., visual examination (Example 3); assay type: physicochemical; conditions: hesperidin supernatant without additive, 95° C. 15 minutes, stored 10° C. one month
Description: (§1) Further, the supernatant was placed in a test tube, and after it was pasteurized by heating at 95° C. for 15 minutes, it was stored at 10° C. for one month to observe the formation of a precipitate by visual examination.

[5] = Isoflavone dissolution amount by HPLC with malonyl daidzin (Example 6); assay type: physicochemical; conditions: for dissolution amount of malonyl daidzin itself: share of malonyl daidzin in the isoflavone amount of the supernatant, 10° C.
Description: (§2) Ultrapure water 1 mL was added to a commercially available soybean isoflavone (trade name “Honen Isoflavone-80”, manufactured by Honen Corporation) 12.5 mg (10 mg of isoflavone glycoside) and a commercially available malonyl isoflavone glycoside, malonyl daidzin (purity: 90% or more, manufactured by Wako Pure Chemicals, Co., Ltd.) 1 mg, and the mixture was stirred at 25° C. for one hour. Then, after it was equilibrated at 10° C. for 48 hours, the supernatant was collected by centrifugation and an isoflavone dissolution amount was measured by HPLC. Further, the supernatant was placed in a test tube, it was stored as such at 10° C. for one month to observe the formation of a precipitate by visual examination.

[6] = assay type: physicochemical
Description: as §2

[7] = Naringin dissolution amount with solubilizing agent (Example 4); assay type: physicochemical; conditions: without additive; naringin 100 mg in ultrapure water 10 mL; 80° C. one hour, equilibrated 10° C. 48 hours
Description: Ultrapure water 10 mL was added to commercially available naringin (flavanones, purity: 95% or more, manufactured by Sigma Inc.) 100 mg and the same solubilizing agent as that used in Example 1, and the mixture was stirred at 80° C. for one hour. Then, after it was equilibrated at 10° C. for 48 hours, the supernatant was collected by centrifugation. The OD254 in the supernatant was measured and a naringin dissolution amount was calculated by the following equation 4. naringin dissolution amount (mg/100 mL)=(OD254 in sample supernatant−OD254 in control supernatant)/naringin specific absorbance×1000

[8] = Storage stability of naringin supernatant at 10° C., visual examination (Example 4); assay type: physicochemical; conditions: naringin supernatant without additive, 95° C. 15 minutes, stored 10° C. one month
Description: as §1

[9] = Storage stability of rutin supernatant at 10° C., visual examination (Example 2); assay type: physicochemical; conditions: rutin supernatant without additive, 95° C. 15 minutes, stored 10° C. one month
Description: Further, the supernatant was placed in a test tube, after it was pasteurized by heating at 95° C. for 15 minutes, it was stored at 10° C. for one month to observe the formation of a precipitate by visual examination.

Structure (SMILES): O=C(O)[C@H]1O[C@@H](Oc2cc3oc(-c4ccccc4)cc(=O)c3c(O)c2O)[C@H](O)[C@@H](O)[C@@H]1O [Baicalin, baicalin]
Baicalin dissolution amount [1]: 12.4 mg/100 mL
Storage stability (10° C.) [2]: precipitate

Structure (SMILES): COc1ccc([C@@H]2CC(=O)c3c(O)cc(O[C@@H]4O[C@H](CO[C@@H]5O[C@@H](C)[C@H](O)[C@@H](O)[C@H]5O)[C@@H](O)[C@H](O)[C@H]4O)cc3O2)cc1O [Hesperidin, hesperidin]
Hesperidin dissolution amount [3]: 8.6 mg/100 mL
Storage stability (10° C.) [4]: precipitate

Structure (SMILES): C[C@@H]1O[C@@H](O[C@H]2[C@H](Oc3cc(O)c4c(c3)O[C@H](c3ccc(O)cc3)CC4=O)O[C@H](CO)[C@@H](O)[C@@H]2O)[C@H](O)[C@H](O)[C@H]1O [Naringin, naringin]
Naringin dissolution amount [7]: 68.0 mg/100 mL
Storage stability (10° C.) [8]: precipitate

Second part, the compound after the results:

Isoflavone amount ([5]; Honen Isoflavone-80 12.5 mg + malonyl daidzin 1 mg in ultrapure water 1 mL, 25° C. one hour, equilibrated 10° C. 48 hours, HPLC, total including malonyl daidzin): 106.3 mg/100 mL
solubilizing magnifying power of the isoflavone glycoside ([5]; in the co-presence of malonyl daidzin, malonyl daidzin's own amount deducted): 2.9 fold
dissolution amount of malonyl daidzin itself ([5]; HPLC): (including 56.9 of mg/100 mL
dissolution amount of malonyl daidzin itself ([5]; HPLC, listed as malonyl daidzin): 56.9 mg/100 mL
Storage stability (10° C.) [6]: No precipitate
Structure (SMILES): O=C(O)CC(=O)OC[C@H]1O[C@@H](Oc2ccc3c(=O)c(-c4ccc(O)cc4)coc3c2)[C@H](O)[C@@H](O)[C@@H]1O [Malonyl daidzin, malonyl daidzin]

Storage stability (10° C.) [9]: precipitate
Structure (SMILES): C[C@@H]1O[C@@H](OC[C@H]2O[C@@H](Oc3c(-c4ccc(O)c(O)c4)oc4cc(O)cc(O)c4c3=O)[C@H](O)[C@@H](O)[C@@H]2O)[C@H](O)[C@H](O)[C@H]1O [Rutin, rutin]

— patent US20060153936A1, “Flavonoid solubilizing agent and method of solubilizing flavonoid” (priority 2003, published 2006)
